Laboratory results: PubChem BioAssay (NCI)
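Compound exposure: 48 hours, 5 concentrations, 96-well plates. TGI: total growth inhibition.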

What was measured:
Experiment in all cases: NCI tumour cell line growth inhibition, 48 h
ACHN renal = system: ACHN renal
COLO 205 colon = system: COLO 205 colon
HCT-15 colon = system: HCT-15 colon
HL-60(TB) leukemia = system: HL-60(TB) leukemia
HOP-62 NSCLC = system: HOP-62 NSCLC
HOP-92 NSCLC = system: HOP-92 NSCLC
MDA-MB-435 = system: MDA-MB-435
NCI/ADR-RES ovarian = system: NCI/ADR-RES ovarian
OVCAR-8 ovarian = system: OVCAR-8 ovarian
SF-268 CNS = system: SF-268 CNS

SMILES | TGI (ACHN renal) [µM] | TGI (COLO 205 colon) [µM] | TGI (HCT-15 colon) [µM] | TGI (HL-60(TB) leukemia) [µM] | TGI (HOP-62 NSCLC) [µM] | TGI (HOP-92 NSCLC) [µM] | TGI (MDA-MB-435) [µM] | TGI (NCI/ADR-RES ovarian) [µM] | TGI (OVCAR-8 ovarian) [µM] | TGI (SF-268 CNS) [µM]
CCOC(=O)CCC(NC(=O)c1ccc(NCc2ccc3nc(OC)c(OC)nc3c2)c2ccccc12)C(=O)OCC (stereo not given) | > 100 | > 100 | > 100 | > 100 | > 100 | 97.7 | > 100 | > 100 | > 100 | > 100
CCOc1ccc(Nc2nc(N)nc(N)c2N=O)cc1 | > 100 | > 100 | > 100 | > 100 | > 100 | 62.8 | > 100 | > 100 | > 100 | > 100
CC1=NN(C(=O)CC(=O)Nc2cccc(C)c2)C(=O)C1N=Nc1ccc(C(=O)O)cc1 (stereo not given) | > 100 | > 100 | > 100 | > 100 | > 100 | > 100 | > 100 | > 100 | > 100 | > 100
